# From publication PMC11696576, “Next generation thiazolyl ketone inhibitors of cytosolic phospholipase A2 α for targeted cancer therapy” (Nature Communications, 2025)
# Where “and” joins values, the source holds several entries; their conditions need not be identical. Equal values may be shown once. Read-outs that look alike come from different tables or passages of the source.
# What was measured:
# [1] = target: T1, human calcium-independent GVIA iPLA2 (Homo sapiens, UniProt O60733); design: method as in PMID 25152071; conditions: 0.091 mole fraction; previously published data ref 19; cited from earlier work
# T1 sequence (O60733 1-806): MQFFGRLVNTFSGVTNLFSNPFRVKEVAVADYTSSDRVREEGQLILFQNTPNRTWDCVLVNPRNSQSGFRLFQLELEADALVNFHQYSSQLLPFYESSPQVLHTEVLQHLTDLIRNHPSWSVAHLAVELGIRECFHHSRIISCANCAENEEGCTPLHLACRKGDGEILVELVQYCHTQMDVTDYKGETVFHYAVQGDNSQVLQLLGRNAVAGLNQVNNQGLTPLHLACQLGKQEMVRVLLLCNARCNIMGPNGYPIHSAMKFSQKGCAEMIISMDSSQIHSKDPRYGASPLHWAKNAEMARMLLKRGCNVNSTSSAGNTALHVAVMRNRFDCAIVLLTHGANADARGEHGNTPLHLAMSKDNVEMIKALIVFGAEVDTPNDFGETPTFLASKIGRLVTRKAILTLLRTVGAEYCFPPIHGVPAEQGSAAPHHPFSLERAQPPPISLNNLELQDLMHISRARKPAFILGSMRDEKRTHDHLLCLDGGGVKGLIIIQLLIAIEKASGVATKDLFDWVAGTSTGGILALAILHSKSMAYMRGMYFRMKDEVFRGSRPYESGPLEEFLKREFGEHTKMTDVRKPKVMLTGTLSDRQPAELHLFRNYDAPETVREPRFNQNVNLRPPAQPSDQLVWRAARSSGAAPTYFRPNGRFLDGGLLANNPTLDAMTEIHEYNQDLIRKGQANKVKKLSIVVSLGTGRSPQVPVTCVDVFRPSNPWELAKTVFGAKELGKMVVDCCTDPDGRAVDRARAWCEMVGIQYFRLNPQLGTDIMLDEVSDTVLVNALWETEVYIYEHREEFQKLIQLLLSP
# isolated human PBMCs = test: eicosanoid release from A23187-stimulated PBMCs (ELISA); assay type: cell-based; design: 6-Keto PGF1a / 12-HETE: unit not given here; conditions: for LTB4 level, PBMCs / PGE2 level, PBMCs / TxB2 level, PBMCs: A23187, individual replicate; for 6-Keto PGF1a: A23187 stimulated; for IC50: Homo sapiens, PBMC, 0.25 h, 30 µM A23187 15 min
# Experimental: In PBMCs, the calcium ionophore A23187 stimulated the release of PGE2, TXB2, LTB4, 6-keto prostaglandin F1α (PGF1α), and 12-HETE.
# PBMCs were isolated from buffy coats using Lymphoprep as described by the manufacturer ([…] Technologies, Vancouver, Canada). Red blood cells were lysed and removed using RBC lysis buffer (Roche, Basel, Switzerland) and the remaining cells were resuspended in 10 mL of RPMI-1640 supplemented with 5% FBS. The TC20 automated cell counter (BIO-RAD, Hercules, California, USA) was used to count the number of cells and check the viability by staining with trypan blue (0.4%) (NanoEnTek, Waltham, MA, USA). For experiments, 5 × 10^5 cells were seeded in 0.5 mL in 24 well plates with RPMI medium supplemented with 5% FBS, 0.3 mg/mL glutamine, and 0.1 mg/mL gentamicin. Cells were preincubated with inhibitors for 2 h before incubating with 30 µM Ca^2+ ionophore A23187 for 15 min to activate cPLA2α. After incubation, the supernatant was obtained by centrifugation at 5992 × g for 10 min at 4° and stored at −80 °C until assayed for PGE2, LTB4, TxB2, 6-Keto PGF1α, and 12S-HETE using enzyme-linked immunosorbent assays (ELISAs) (Cayman #514435, Cayman #10009292, Cayman #501020, Cayman #15210, and Enzo Lifesciences #ADI-900-050). After an overnight hybridization, the enzymatic conversion of substrate was read at OD420 nm using a Cytation 5 multimode platereader (Biotek Instruments, Winooski, VT, USA). Standard curves fit using 4-parameter logistic regression in myassays.com were used to calculate eicosanoid concentrations.
# MV-4-11 cells = test: cell viability, resazurin assay, MV-4-11; assay type: cell-based, human; conditions: for cell viability relative to 0 µM = 100 (Figure S7b): MV-4-11, rep1-4, listed as AVX420
# From the text: Bjørn Tore Gjertsen (University of Bergen, Norway). […] The cell lines were not authenticated.
# Figure S7. Sensitivity of cell lines derived from hematological malignancies. a. cell viability expressed as relative light units ( RLU) is plotted for all cell lines in the screen that were de-rived from hematological malignancies. b. corresponding IC50 values calculated by non-linear regression analysis. c. Cell viability assessed by resazurin assays in MV-4-11 and HL-60 cells.
# Data were normalized to the vehicle-treated control (100%) and are the mean of 4 biological replicates ±stdev (MV-4-11) and 5 biological replicates ±stdev (HL-60), Non-linear regres- […]
structure (smiles),measurement,setting,value
CCCCCCCCc1ccc(OCC(=O)c2nc(C(=O)OC)cs2)cc1 [GK470],GVIA iPLA2 % Inhib,[1],86%
CCCCCCCOc1ccc(OCC(=O)c2nc(C(=O)OC)cs2)cc1 [GK420],"LTB4 level, PBMCs",isolated human PBMCs; 0.5 µM,429.9 pg/mL and 749.3 pg/mL and 255.6 pg/mL and 605.5 pg/mL
same,"PGE2 level, PBMCs",isolated human PBMCs; 0.5 µM,169.2 pg/mL and 38.5 pg/mL and 267.8 pg/mL and 309 pg/mL
same,"TxB2 level, PBMCs",isolated human PBMCs; 0.5 µM,8408.2 pg/mL and 1252.3 pg/mL and 13129.8 pg/mL and 13753.8 pg/mL
same,6-Keto PGF1a,isolated human PBMCs; 0.5 µM,21.6 and 26.4
same,"LTB4 level, PBMCs",isolated human PBMCs; 1 µM,370.9 pg/mL and 289.7 pg/mL and 718.4 pg/mL and 239.1 pg/mL
same,"PGE2 level, PBMCs",isolated human PBMCs; 1 µM,247.2 pg/mL and 134.2 pg/mL and 36.8 pg/mL and 244.2 pg/mL
same,"TxB2 level, PBMCs",isolated human PBMCs; 1 µM,11110.6 pg/mL and 8481.1 pg/mL and 1330.2 pg/mL and 14838.7 pg/mL
same,6-Keto PGF1a,isolated human PBMCs; 1 µM,16.6 and 27.5
same,"LTB4 level, PBMCs",isolated human PBMCs; 2.5 µM,144.2 pg/mL and 219 pg/mL and 387.5 pg/mL and 190 pg/mL
same,"PGE2 level, PBMCs",isolated human PBMCs; 2.5 µM,238.2 pg/mL and 102.2 pg/mL and 66 pg/mL and 196.8 pg/mL
same,"TxB2 level, PBMCs",isolated human PBMCs; 2.5 µM,7528.6 pg/mL and 7919.2 pg/mL and 1078.1 pg/mL and 10138.3 pg/mL
same,6-Keto PGF1a,isolated human PBMCs; 2.5 µM,15.1 and 17.9
same,"LTB4 level, PBMCs",isolated human PBMCs; 5 µM,107.5 pg/mL and 125.8 pg/mL and 244.5 pg/mL and 111.7 pg/mL
same,"PGE2 level, PBMCs",isolated human PBMCs; 5 µM,149.4 pg/mL and 71.6 pg/mL and 38.8 pg/mL and 141.2 pg/mL
same,"TxB2 level, PBMCs",isolated human PBMCs; 5 µM,4591 pg/mL and 3235.3 pg/mL and 764.8 pg/mL and 7035.5 pg/mL
same,6-Keto PGF1a,isolated human PBMCs; 5 µM,16.9 and 21.1
same,"LTB4 level, PBMCs",isolated human PBMCs; 10 µM,64.7 pg/mL and 93.8 pg/mL and 115.3 pg/mL and 64.3 pg/mL
same,"PGE2 level, PBMCs",isolated human PBMCs; 10 µM,129 pg/mL and 52.7 pg/mL and 30.5 pg/mL and 67 pg/mL
same,"TxB2 level, PBMCs",isolated human PBMCs; 10 µM,2621.7 pg/mL and 1488.5 pg/mL and 633.4 pg/mL and 3277.7 pg/mL
same,IC50,"isolated human PBMCs; PBMCs, read-out: IC50 LTB4 inhibition",0.317 µM
same,IC50,"isolated human PBMCs; PBMCs, read-out: IC50 PGE2 inhibition",1.1 µM
same,IC50,"isolated human PBMCs; PBMCs, read-out: IC50 TXB2 inhibition",2.2 µM
same,effect on 6-keto PGF1α and 12-HETE,"isolated human PBMCs; PBMCs, A23187, IC50 values could not be calculated",tendency to suppress
same,IC50,"MV-4-11 cells; Homo sapiens, MV4-11, resazurin assay",5.7 µM
same,cell viability relative to 0 µM = 100 (Figure S7b),MV-4-11 cells; 0.00306 µM,107.974 and 94.1556 and 88.3103 and 111.814
same,cell viability relative to 0 µM = 100 (Figure S7b),MV-4-11 cells; 0.00919 µM,108.045 and 93.3168 and 91.3448 and 113.05
same,cell viability relative to 0 µM = 100 (Figure S7b),MV-4-11 cells; 0.02757 µM,114.954 and 104.137 and 83.3442 and 127.148
same,cell viability relative to 0 µM = 100 (Figure S7b),MV-4-11 cells; 0.08272 µM,119.708 and 98.9766 and 68.867 and 129.045
same,cell viability relative to 0 µM = 100 (Figure S7b),MV-4-11 cells; 0.24815 µM,113.432 and 105.146 and 76.1961 and 124.847
same,cell viability relative to 0 µM = 100 (Figure S7b),MV-4-11 cells; 0.74444 µM,108.976 and 63.5816 and 66.7499 and 99.3411
same,cell viability relative to 0 µM = 100 (Figure S7b),MV-4-11 cells; 2.23333 µM,103.119 and 55.0214 and 81.5625 and 89.0387
same,cell viability relative to 0 µM = 100 (Figure S7b),MV-4-11 cells; 6.7 µM,80.6879 and 58.6991 and 52.7781 and 45.3319
same,cell viability relative to 0 µM = 100 (Figure S7b),MV-4-11 cells; 10 µM,48.2149 and 41.1505 and 41.4878 and 26.408
same,cell viability relative to 0 µM = 100 (Figure S7b),MV-4-11 cells; 30 µM,40.7033 and 23.5083 and 29.7689 and 20.683
